Patent publication US20250108048A1, “STING AGONIST COMPOUNDS AND CONJUGATES” (SUTRO BIOPHARMA, INC., priority 2023, published 2025)

Target: T1, mSTING (Mus musculus, UniProt Q3TBT3)
T1 sequence (Q3TBT3 1-378): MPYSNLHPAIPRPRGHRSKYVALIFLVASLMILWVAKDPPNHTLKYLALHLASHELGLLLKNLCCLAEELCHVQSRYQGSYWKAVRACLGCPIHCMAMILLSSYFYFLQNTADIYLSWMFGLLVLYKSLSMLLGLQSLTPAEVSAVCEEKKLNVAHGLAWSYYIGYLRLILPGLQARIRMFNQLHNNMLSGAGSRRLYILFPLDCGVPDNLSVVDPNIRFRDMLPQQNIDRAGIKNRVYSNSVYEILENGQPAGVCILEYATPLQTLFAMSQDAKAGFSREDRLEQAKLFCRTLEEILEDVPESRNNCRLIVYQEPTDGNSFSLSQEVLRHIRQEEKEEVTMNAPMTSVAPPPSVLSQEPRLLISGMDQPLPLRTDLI
Assay: THP1-Dual KI-mSTING reporter assay
Type: cell-based
Design: host or cells: THP1-Dual KI-mSTING (from THP1-Dual KO-STING)
Details: THP1-Dual KI-mSTING cells, 24 hours; read-out: Reporter assay EC50 (nM) THP-1 mSTING
Description: The activities of the STING agonists to activate human or mouse STING pathways were evaluated in THP-1-Dual™, THP1-Dual™ KI-hSTING-R232, THP1-Dual™ KI-hSTING-H232 Cells and THP1-Dual™ KI-mSTING Cells. THP-1-Dual™ cells contains hSTING-HAQ haplotype and can be used to evaluate the activity of STING agonists by monitoring the activation of NF-κB pathway and the […] (IFN regulatory factor) pathways. THP1-Dual™ KO-STING cells were generated from THP1-Dual™ cells by stable knockout of the endogenous HAQ STING gene. THP1-Dual™ KI-hSTING-R232 cells, THP1-Dual™ KI-hSTING-H232 cells and THP1-Dual™ KI-mSTING cells were generated by transfecting THP1-Dual™ KO-STING cells with hSTING-R232 or hSTING-H232 or mSTING. Stimulating these reporter cells with a STING agonist activates TRF pathway and induces the production of a secreted Lucia luciferase in the cell culture medium, which can be determined using QUANTI-Luc™ reagent.
THP-1-Dual™, THP1-Dual™ KI-hSTING-R232, THP1-Dual™ KI-hSTING-H232 and THP1-Dual™ KI-mSTING reporter cells were purchased from Invivogen and maintained in manufacture recommended culture medium with required supplemental antibiotics. On the day of assay, the cells were harvested with Accutase and counted by the Vi-CELL Cell Viability Analyzers. Cells were resuspended in HEK blue detection medium and a total of 10000 cells were seeded in each well of a 384-well flat bottom plate. Serial dilutions of STING agonists free drugs (1:3 serial dilution starting from 5 uM) was added into treatment wells. After incubation at 37° C. in a CO2 incubator for 24 hours, 20 μl of cell culture medium per well was transferred into a 384-well white (opaque) plate. 50 μl of QUANTI-Luc™ assay solution was then added to each well and the plate was immediately transferred to an ENVISION® plate reader to measure luminescence (Perkin-Elmer). Relative luminescence readings were converted to fold change of signal using untreated cells as controls. Data was fitted with non-linear regression analysis, using log (agonist) vs. response, variable slope, 4-parameter fit equation using GraphPad Prism. Data was expressed as fold change in signal vs. dose of STING agonist in nM with error bars indicating the Standard Deviation (SD) of the quadruplicates. There result was reported in Table 2 as EC50 (the midpoint of the curve, or concentration at which […] of the maximum effect was observed).

**Q.** Which EC50 does the source give for `CCn1nc(C)cc1C(=O)Nc1nc2cc(C(N)=O)cc(OC)c2n1C/C=C/Cn1c(NC(=O)c2cc(C)nn2CC)nc2cc(C(N)=O)cc(OCCCN3CCC(c4nnc5n4CCNC5)CC3)c21` [Compound 4, 1-[(E)-4-[5-carbamoyl-2-[(2-ethyl-5-methyl-pyrazole-3-carbonyl)amino]-7-[3-[4-(5,6,7,8-tetrahydro-[1,2,4]triazolo[4,3-a]pyrazin-3-yl)-1-piperidyl]propoxy]benzimidazol-1-yl]but-2-enyl]-2-[(2-ethyl-5-methyl-pyrazole-3-carbonyl)amino]-7-methoxy-benzimidazole-5-carboxamide; 2,2,2-trifluoroacetic acid] here?
**A.** > 150 nM
